Experiments:
[1] = tested on: bacterial cells expressing an adenine DNA methyltransferase; assay type: cell-based, Caulobacter
Brucella abortus = assay type: cell-based
dam Methylase (E. coli) = dam Methylase (E. coli) (Escherichia coli, UniProt P0AEE8); assay type: biochemical; details: 100 µM
[2] = target: dcm Methyltransferase (Hhal) (Haemophilus parahaemolyticus, UniProt P05102); assay type: biochemical, Hemophilus hemolyticus; details: at 500 μM
[3] = tested on: Agrobacterium tumefaciens; assay type: cell-based; details: read-out: IC50 cell growth inhibition
Helicobacter pylori = assay type: cell-based; details: read-out: IC50 cell growth inhibition
[4] = tested on: Caulobacter crescentus (CB15N); assay type: cell-based; details: 30° C., growth monitored at 630 nm up to 22 hours; read-out: IC50 (μM) Caulobacter crescentus Cell Growth
Brucella abortus CcrM = assay type: biochemical
[5] = tested on: Bacillus subtilis (ATCC #33234); assay type: cell-based; details: 37° C., growth monitored up to 7.5 hours; read-out: IC50 (μM) Bacillus Subtilis Cell Growth
Caulobacter cresentus = assay: microbe, parasite or virus in culture; assay type: cell-based; details: read-out: IC50 cell growth inhibition
Bacillus subtilis = assay: microbe, parasite or virus in culture; assay type: cell-based; details: read-out: IC50 cell growth inhibition
[6] = tested on: adenine DNA methyltransferase; assay type: biochemical

dcm Methyltransferase (Hhal), sequence (P05102 whole entry): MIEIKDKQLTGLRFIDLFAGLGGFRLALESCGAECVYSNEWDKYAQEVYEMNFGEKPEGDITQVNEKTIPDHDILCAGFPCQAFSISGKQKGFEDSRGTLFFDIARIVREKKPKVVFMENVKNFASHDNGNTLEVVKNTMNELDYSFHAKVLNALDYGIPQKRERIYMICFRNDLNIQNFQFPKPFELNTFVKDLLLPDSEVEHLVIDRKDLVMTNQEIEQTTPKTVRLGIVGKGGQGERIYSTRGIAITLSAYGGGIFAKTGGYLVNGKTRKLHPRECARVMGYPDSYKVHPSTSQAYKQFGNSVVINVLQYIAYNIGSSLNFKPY
dam Methylase (E. coli), sequence (P0AEE8 whole entry): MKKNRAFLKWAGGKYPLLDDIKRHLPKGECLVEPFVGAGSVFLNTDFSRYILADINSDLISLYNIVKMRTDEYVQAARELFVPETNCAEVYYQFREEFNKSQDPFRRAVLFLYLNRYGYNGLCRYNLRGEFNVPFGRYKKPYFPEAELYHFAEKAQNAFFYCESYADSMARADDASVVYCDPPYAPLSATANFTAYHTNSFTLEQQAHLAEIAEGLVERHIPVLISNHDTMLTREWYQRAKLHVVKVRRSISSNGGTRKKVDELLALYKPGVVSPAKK

Row | Molecule | IC50 [4] | % reaction Brucella abortus CcrM Activity (Brucella abortus CcrM) | IC50 [5] | further results
1 | c1ccc(B(OCCNc2ncnc3[nH]cnc23)c2ccccc2)cc1 | – | – | – | concentration found to inhibit cell growth [1]: < 50 µM
2 | 6-N-(diphenylborinic ester)-ethyl-9-(2-(2-(2-hydroxyethoxy)ethoxy)ethyl)-adenine [Compound 3d] | – | – | – | effect on cell growth (Brucella abortus): Cell growth inhibited from start; inhibition of dam Methylase (dam Methylase (E. coli)): Complete inhibition; inhibition of dcm Methyltransferase [2]: No inhibition at all
3 | 6-N-(diphenylborinic ester)-ethyl-9-(2-(4-morpholinyl)-ethyl)-adenine [Compound 3b] | – | – | – | effect on cell growth (Brucella abortus): Complete cell death after 12 hours; IC50 [3]: 25 µM; inhibition of dam Methylase (dam Methylase (E. coli)): Complete inhibition; inhibition of dcm Methyltransferase [2]: No inhibition at all
4 | 6-N-(diphenylborinic ester)-ethyl-9-(3-(N-phthaloyl)-aminopropyl)-adenine [Compound 3c] | – | – | – | effect on cell growth (Brucella abortus): Cell growth inhibited from start; IC50 [3]: 25 µM; inhibition of dam Methylase (dam Methylase (E. coli)): Complete inhibition; inhibition of dcm Methyltransferase [2]: No inhibition at all
5 | 6-N-(diphenylborinic ester)-ethyl-9-(ethyl-2-acrylate)-methyl-adenine [Compound 3e] | – | – | – | effect on cell growth (Brucella abortus): Cell growth inhibited from start; IC50 (Helicobacter pylori): 25 µM; inhibition of dam Methylase (dam Methylase (E. coli)): Complete inhibition; inhibition of dcm Methyltransferase [2]: No inhibition at all
6 | 6-N-(diphenylborinic ester)-ethyl-adenine [Compound 3a] | – | – | – | effect on cell growth (Brucella abortus): Almost complete cell death after 12 hours; IC50 [3]: > 100 µM; inhibition of dam Methylase (dam Methylase (E. coli)): Complete inhibition; inhibition of dcm Methyltransferase [2]: No inhibition at all
7 | c1ccc(B(Oc2cccc3cccnc23)c2ccccc2)cc1 [(11i), diphenylborinic acid 8-hydroxyquiniline ester] | > 100 µM | – | – | –
8 | Fc1ccc(B(Oc2cccc3cccnc23)c2ccc(F)cc2)cc1 [(11ii), Di-(4-fluorophenyl)borinic acid 8-hydroxyguinoline ester] | 23 µM | 61% | – | –
9 | Clc1ccc(B(Oc2cccc3cccnc23)c2ccc(Cl)cc2)cc1 [(11iii), Di-(4-chlorophenyl)borinic acid 8-hydroxyquinoline ester] | 16 µM | 61% | – | –
10 | Clc1cccc(B(Oc2cccc3cccnc23)c2cccc(Cl)c2)c1 [(11iv), Di-(3-chlorophenyl)borinic acid 8-hydroxyguinoline ester] | 10 µM | – | < 10 µM | –
11 | Fc1cc(Cl)ccc1B(Oc1cccc2cccnc12)c1ccc(Cl)cc1F [(11v), Di-(4-chloro-2-fluorophenyl)borinic acid 8-hydroxyquinoline ester] | 26 µM | – | < 10 µM | –
12 | c1cnc2c(OB(c3ccc4c(c3)OCO4)c3ccc4c(c3)OCO4)cccc2c1 [(11vi), Di-(3,4-methylenedioxyphenyl)borinic acid 8-hydroxyquinoline ester] | 32 µM | 42% | 28 µM | –
13 | COc1ccc(B(Oc2cccc3cccnc23)c2ccc(OC)cc2)cc1 [(11vii), Di-(4-methoxyphenyl)borinic acid 8-hydroxyquinoline ester] | 24 µM | – | 20 µM | –
14 | c1csc(B(Oc2cccc3cccnc23)c2cccs2)c1 [(11viii), Di-(2-thienyl)borinic acid 8-hydroxyguinoline ester] | > 100 µM | 74% | 28 µM | –
15 | Cc1ccc2cccc(OB(c3ccc(F)cc3)c3ccc(F)cc3)c2n1 [(12ii), Di-(p-fluorophenyl)borinic acid 8-hydroxyquinaldine ester] | 56 µM | 17% | > 100 µM | –
16 | Cc1ccc2cccc(OB(c3ccc(Cl)cc3)c3ccc(Cl)cc3)c2n1 [(12iii), Di-(p-chlorophenyl)borinic acid 8-hydroxyguinaldine ester] | 5 µM | 40% | 24 µM | –
17 | COc1ccc(B(Oc2cccc3ccc(C)nc23)c2ccc(OC)cc2)cc1 [(12vii), Di-(4-methoxyphenyl)borinic acid 8-hydroxyquinaldine ester] | 24 µM | 56% | > 100 µM | –

Row | Molecule | IC50 [4] | % reaction Brucella abortus CcrM Activity (Brucella abortus CcrM) | IC50 [5] | further results
18 | Fc1ccc(B(Oc2ccc(Cl)c3cccnc23)c2ccc(F)cc2)cc1 [(13ii), Di-(p-fluorophenyl)borinic acid 5-chloro-8-hydroxyquinaline ester] | 7 µM | 55% | 27 µM | –
19 | Clc1ccc(B(Oc2ccc(Cl)c3cccnc23)c2ccc(Cl)cc2)cc1 [(13iii), Di-(p-chlorophenyl)borinic acid 5-chloro-8-hydroxyquinaline ester] | 6 µM | 81% | < 10 µM | –
20 | Clc1ccc(OB(c2ccc3c(c2)OCO3)c2ccc3c(c2)OCO3)c2ncccc12 [(13vi), Di-(3,4-methylenedioxyphenyl)borinic acid 5-chloro-8-hydroxyquinoline ester] | 7 µM | – | > 100 µM | –
21 | COc1ccc(B(Oc2ccc(Cl)c3cccnc23)c2ccc(OC)cc2)cc1 [(13vii), Di-(4-methoxyphenyl)borinic acid 5-chloro-8-hydroxyquinoline ester] | 7 µM | – | 36 µM | –
22 | O=[N+]([O-])c1ccc(OB(c2ccc3c(c2)OCO3)c2ccc3c(c2)OCO3)c2ncccc12 [(14vi), Di-(3,4-methylenedioxyphenyl)borinic acid 8-hydroxy-5-nitroquinoline ester] | 7 µM | 21% | > 100 µM | –
23 | c1ccc(B(OCc2ccccn2)c2ccccc2)cc1 [(16i), Diphenylborinic acid pyridine-2-methanol] | > 100 µM | 93% | > 100 µM | –
24 | NCCOB(c1ccc(F)cc1)c1ccc(F)cc1 [(19ii), Di-(4-fluorophenyl)borinic acid ethanolamine ester] | 85 µM | 8% | – | –
25 | NCCOB(c1ccc(Cl)cc1)c1ccc(Cl)cc1 [(19iii), Di-(4-chlorophenyl)borinic acid ethanolamine ester] | 17 µM | – | – | –
26 | Fc1ccc([B-]2(c3ccc(F)cc3)Oc3cccc4ccc[n+]2c34)cc1 [Compound (1), di-(p-fluorophenyl)borinic acid 8-hydroxyquiniline ester] | – | – | – | IC50 (Caulobacter cresentus): 23 µM; IC50 (Bacillus subtilis): 1.4 µM
27 | Clc1ccc([B-]2(c3ccc(Cl)cc3)Oc3cccc4ccc[n+]2c34)cc1 [Compound (2), di-(p-chlorophenyl)borinic acid 8-hydroxyquiniline ester] | – | – | – | IC50 (Caulobacter cresentus): 1.6 µM; IC50 (Bacillus subtilis): 7 µM
28 | c1ccc([B-]2(c3ccccc3)Oc3cccc4ccc[n+]2c34)cc1 [Compound (3), diphenylborinic acid 8-hydroxyquiniline ester] | – | – | – | IC50 (Caulobacter cresentus): > 100 µM
29 | Fc1ccc([B-]2(c3ccc(F)cc3)[NH2+]CCO2)cc1 [Compound (4), di-(p-fluorophenyl)borinic acid ethanolamine ester] | – | – | – | IC50 (Caulobacter cresentus): 8.5 µM; IC50 (Bacillus subtilis): 3.4 µM
30 | Clc1ccc([B-]2(c3ccc(Cl)cc3)[NH2+]CCO2)cc1 [Compound (5), di-(p-chlorophenyl)borinic acid ethanolamine ester] | – | – | – | IC50 (Caulobacter cresentus): 1.7 µM; IC50 (Bacillus subtilis): 3.2 µM
31 | NCCNc1ncnc2[nH]cnc12 [compound (8)] | – | – | – | inhibitory activity [6]: relatively low (mM range)
32 | Diphenylborinic acid 2-amino-1-phenylpropanol [(17i)] | > 100 µM | 114% | > 100 µM | –
33 | Diphenylborinic acid (S)-(+)-pyrrolidine-2-methanol [(18i)] | > 100 µM | 81% | > 100 µM | –

Reference: patent US20050227933A1 (priority 2001, published 2005)
